The results in this text go back to publication PMC12802263 (mBio, 2025).

In assay [1] the target is CapV (Vibrio cholerae, UniProt Q9KVG8). The following applies: 50 mM Na3PO4, pH 7.4, 300 mM NaCl, 10% glycerol, 37 °C.
Assay [2] addresses DncV (Vibrio cholerae, UniProt Q9KVG7). In words: biochemical.

Sequence of DncV (Q9KVG7 whole entry, looked up): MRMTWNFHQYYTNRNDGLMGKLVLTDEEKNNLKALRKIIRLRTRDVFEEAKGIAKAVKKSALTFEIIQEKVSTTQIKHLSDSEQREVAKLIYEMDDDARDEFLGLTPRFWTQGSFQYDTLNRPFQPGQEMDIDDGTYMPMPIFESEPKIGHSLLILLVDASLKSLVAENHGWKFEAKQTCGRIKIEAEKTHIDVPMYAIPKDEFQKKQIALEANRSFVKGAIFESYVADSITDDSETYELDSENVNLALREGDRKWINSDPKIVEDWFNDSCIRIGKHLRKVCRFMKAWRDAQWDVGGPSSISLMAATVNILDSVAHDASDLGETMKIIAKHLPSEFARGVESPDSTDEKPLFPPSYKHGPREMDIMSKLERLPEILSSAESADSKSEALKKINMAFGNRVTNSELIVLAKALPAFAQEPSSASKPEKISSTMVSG
Sequence of CapV (Q9KVG8 whole entry, looked up): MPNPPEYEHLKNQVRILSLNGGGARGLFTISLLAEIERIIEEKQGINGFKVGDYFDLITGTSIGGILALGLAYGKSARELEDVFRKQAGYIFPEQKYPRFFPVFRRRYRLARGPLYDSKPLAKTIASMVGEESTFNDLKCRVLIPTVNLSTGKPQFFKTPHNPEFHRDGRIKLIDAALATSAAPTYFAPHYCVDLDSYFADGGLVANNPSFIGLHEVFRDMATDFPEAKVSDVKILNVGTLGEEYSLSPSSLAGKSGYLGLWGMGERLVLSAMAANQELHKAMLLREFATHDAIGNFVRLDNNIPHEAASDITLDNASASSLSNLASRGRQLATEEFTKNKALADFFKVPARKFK

In the case of `CCCC(=O)Oc1ccc2nc3ccc(=O)cc-3oc2c1` [Resorufin butyrate], the “fluorogenic phospholipase assay (ex 550 / em 591 nm)” value in assay [1] was “phospholipase activity of the proteins CapV and CapV^S62A was detected using the fluorescent substrate Resorufin”.

In general, Kd refers to the concentration at which binding is half-saturated. A higher Kd goes with lower affinity. In turn, `Nc1nc2c(c(=O)[nH]1)N[C@@H](CNc1ccc(C(=O)N[C@@H](CCC(=O)O)C(=O)O)cc1)CN2` [THF, tetrahydrofolate] came in with a Kd in assay [2] of 3.59 µM.

Molecule `Nc1nc2c(ncn2[C@@H]2O[C@H](COP(=O)(O)OP(=O)(O)OP(=O)(O)O)[C@@H](O)[C@H]2O)c(=O)[nH]1` [GTP] showed a dissociation constant (Kd) in assay [2] of 2.63 µM.
